Experimental data reported in US20230011398A1, “COMBINATION THERAPY APPROACH TO ELIMINATE HIV INFECTIONS” (priority 2019, published 2023).

How the values were obtained:
HIV-1-infected T cells = test: Annexin V / DEVD-FITC / p24 cell death assay in T cells with or without HIV-1 infection; type: cell-based, human
Protocol: Naïve T cells, activated T cells, CMT or EMT with or without infection with HIV-1 (NL4-3, 1 MOI) were cultured for 4 days in the presence of 30 nM CCL19 and 0.3 ng/ml IL-2 for 4 days to establish latent HIV infection. […] The cells were then incubated with 1 μM FITC-DEVD-FMK (Biovision), followed by staining with APC-Annexin V (Biolegend) and intracellular staining with PE-anti-HIV p24. The cells were analyzed by flow cytometry. The percentage of cell death was calculated by the loss of live cells negative for annexin V and DEVD staining by comparing treated and untreated groups: (untreated—treated)/untreated x 100%.

[1] = system: CMT latently infected with HIV-1; test: HIV-1 latency reversal in latently infected central memory T cells (p24 staining, HIV-1 mRNA RT-PCR); type: cell-based, human; conditions: latently infected cells, pol RT-PCR
Text: Flow cytometry. The following antibodies from Biolegend were used for flow cytometry: Pacific Blue-anti-mouse CD45 (1:100, 103126, clone 30-F11,) APC-anti-human CD45 (1:100, 304012, clone HI30), Pacific Blue-anti-human CD19 (1:100, 302232, clone HIB19), PE-anti-human CD4 (1:100, 317414, clone OKT4), APC/Fire-750-anti-human CD8 (1:100, 34474, clone SK1), FITC-anti-human CD56 (1:100, 392413, clone QA17A16), Pacific Blue-anti-human CD19 (1:100, 302232, clone HIB19), Pacific Blue-anti-human CD3 (1:100, 300329, clone HIT3a), PE/Cy7-anti-HLA-HLA-DR, DP, DQ (1:100, 361708, clone Tü139), PerCP/Cy5.5-anti-human CD11b (1:100, 301327, clone ICRF44), APC/Fire-750-anti-human CD163 (1:100, 333633, clone GHI/61), PE-anti-human CD123 (1:100, 306005, clone 6H6), Alexa Fluor 488 anti-human CD11c (1:100, 301618, clone 3.9), PerCP/Cy5.5-anti-human CD3 (1:100, 300328, clone HIT3a), PerCP/Cy5.5 anti-human CD123 (1:100, 306016, clone 6H6), FITC-anti-mouse CD45 (1:100, 103108, clone 30-F11), PE/Cy7 anti-human CD197 (CCR7) (1:100, 353226, clone G043H7), PE-anti-human CD45R0 (1:100, 304244, clone UCHL1), FITC-anti-human CD45RA (1:100, 304148, clone HI100) and Alexa Fluor 488-anti-CD68 (1:30, 333812, clone Y1/82A), PerCP/Cy5.5-anti-human CD19 (1:100, 302230, clone HIB19), PE-anti-human CD27 (1:100, 356406, clone M-T271) and Pacific Blue-anti-human IgD (1:100, 348224, clone IA6-2). PE-anti-human CD3 (1:100, 556612, clone SP34) and V50-anti-human CD4 (1:100, 560345, clone RPA-T4) were from BD Biosciences. The cells stained with indicated antibodies were analyzed using a BD LSR II flow cytometer (BD Biosciences). To detect HIV-1 p24, spleen cells from Hu-HSC mice were stimulated with 5 μg/ml PHA (Sigma) and 6 ng/ml IL-2 (Biolegend). The cells were stained for T cell markers, followed by fixation and permeabilization using the Cytofix/Cytoperm buffer (BD Bioscience) and intracellular staining with PE-conjugated anti-p24 (1:30, 6604667, clone KC57, Beckman Coulter). The cells were analyzed by flow cytometry using a BD LSR II flow cytometer (BD Bioscience) and FlowJo software (version 10.5.3, BD Bioscience).
T cell isolation and infection with HIV-1. Peripheral blood mononuclear cells (PBMCs) of anonymous healthy donors from the Gulf Coast Blood Center were used to purify CD4^+ T cells with anti-CD4 MACS beads (Miltenyi Biotec). CD3^+CD4^+CD45RA^+CD45RO^−CCR7^+ naïve T cells, CD3^+CD4^+CD45RA^−CD45RO^+CCR7+ central memory T cells (CMT) and CD3^+CD4^+CD45RA^−CD45RO^+CCR7^− effector memory T cells (EMT) were sorted using a BD FACSAria flow cytometer (BD Bioscience). Naive CD4^+ T cells were stimulated with 5 μg/ml PHA and 6 ng/ml IL-2 in RPMI complete medium for 2 days to generate activated CD4^+ T cells. Sorted T cell subsets or activated T cells were infected with HIV-1 CXCR4-tropic NL4-3 or CCRS-tropic AD8 (both virus clones were obtained from the NIH AIDS Reagent Program) at the indicated MOI for 2 h. The cells were washed with PBS and cultured in RPMI complete medium containing 30 nM CCL19 (Biolegend) and 0.3 ng/ml IL-2 (Biolegend) and for 4 days to establish latent HIV infection as described.
Naïve T cells, activated T cells, CMT or EMT with or without infection with HIV-1 (NL4-3, 1 MOI) were cultured for 4 days in the presence of 30 nM CCL19 and 0.3 ng/ml IL-2 for 4 days to establish latent HIV infection. The cells with or without HIV-1 infections were stimulated with 0.1 μM IDB (Ingenol-3,20-dibenzonate, ENZO Life Sciences) in the presence of 0.2 μM ABT-263 (Adooq Bioscience), 2 μM SAR405 (MedChemExpress) or 10 μM chloroquine (CQ, Sigma) as indicated for 48 h. The cells were then incubated with 1 μM FITC-DEVD-FMK (Biovision), followed by staining with APC-Annexin V (Biolegend) and intracellular staining with PE-anti-HIV p24. The cells were analyzed by flow cytometry. The percentage of cell death was calculated by the loss of live cells negative for annexin V and DEVD staining by comparing treated and untreated groups: (untreated—treated)/untreated x 100%. […]

`CC1=C[C@]23C(=O)[C@@H](C=C(COC(=O)c4ccccc4)[C@@H](O)[C@]2(O)[C@H]1OC(=O)c1ccccc1)[C@H]1[C@@H](C[C@H]3C)C1(C)C` [IDB, ingenol 3,20-dibenzoate] was tested, and the “cell death in HIV-1-infected T cells (Annexin V, cleavage of DEVD)” value (HIV-1-infected T cells; 0.1 μM IDB, 48 h) was “induced cell death in HIV-1-infected T cells”, the “cell death in uninfected cells” value (HIV-1-infected T cells; 0.1 μM IDB, 48 h) was “relatively resistant” and the “caspase-3 activities measured by cleavage of DEVD” value (HIV-1-infected T cells; HIV-1-infected CMT, 100 nM IDB 24 h) was “increased caspase-3 activities”. For the same molecule, the “cell death in HIV-1-infected CMT, Annexin V staining” value (HIV-1-infected T cells; NL4-3 1 MOI, 100 nM IDB 24 h) was “induced cell death” and the “latency reversal observed by expression of HIV-1 mRNA after stimulation” value [1] was “Latency reversal was also observed”.
